The results in this text go back to publication PMC6571133, “Capsazepine prolongation of the duration of lidocaine block of sensory transmission in mice may be mediated by modulation of HCN channel currents” (PeerJ, 2019).

In one assay the target is mHCN1 (Mouse HCN1) (Mus musculus, UniProt O88704). The assay can be described thus: whole-cell patch clamp of Ih in transfected HEK […] cells. The format is cell-based. In general terms: In patch-clamp work, channel activity is measured electrically.
mHCN1 (Mouse HCN1), sequence (O88704 whole entry): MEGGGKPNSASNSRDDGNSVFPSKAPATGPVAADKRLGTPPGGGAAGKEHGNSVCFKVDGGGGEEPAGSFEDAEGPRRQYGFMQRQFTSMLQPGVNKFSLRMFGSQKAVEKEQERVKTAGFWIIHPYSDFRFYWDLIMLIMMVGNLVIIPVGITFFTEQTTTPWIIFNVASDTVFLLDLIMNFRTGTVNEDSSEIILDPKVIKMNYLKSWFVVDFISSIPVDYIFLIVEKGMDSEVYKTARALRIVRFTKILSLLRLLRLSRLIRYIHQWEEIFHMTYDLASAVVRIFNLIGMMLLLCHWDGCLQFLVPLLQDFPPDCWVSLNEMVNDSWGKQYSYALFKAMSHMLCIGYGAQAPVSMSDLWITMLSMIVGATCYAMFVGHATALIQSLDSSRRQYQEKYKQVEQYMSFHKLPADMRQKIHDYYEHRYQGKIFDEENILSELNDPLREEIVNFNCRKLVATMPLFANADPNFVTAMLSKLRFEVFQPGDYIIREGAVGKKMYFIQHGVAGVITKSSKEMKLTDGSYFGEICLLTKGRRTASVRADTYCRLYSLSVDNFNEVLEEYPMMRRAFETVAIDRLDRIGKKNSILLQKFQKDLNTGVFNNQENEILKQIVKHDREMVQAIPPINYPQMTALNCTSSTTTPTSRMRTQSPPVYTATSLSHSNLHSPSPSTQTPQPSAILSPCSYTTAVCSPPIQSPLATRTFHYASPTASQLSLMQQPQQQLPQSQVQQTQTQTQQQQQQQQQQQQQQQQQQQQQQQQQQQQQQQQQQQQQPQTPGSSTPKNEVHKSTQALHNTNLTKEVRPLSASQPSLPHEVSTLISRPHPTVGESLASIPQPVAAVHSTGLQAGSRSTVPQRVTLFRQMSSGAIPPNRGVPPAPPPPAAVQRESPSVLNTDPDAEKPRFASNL
Another assay concerns the target T1, mHCN2 (Mouse HCN2) (Mus musculus, UniProt O88703).
T1 sequence (O88703 1-863): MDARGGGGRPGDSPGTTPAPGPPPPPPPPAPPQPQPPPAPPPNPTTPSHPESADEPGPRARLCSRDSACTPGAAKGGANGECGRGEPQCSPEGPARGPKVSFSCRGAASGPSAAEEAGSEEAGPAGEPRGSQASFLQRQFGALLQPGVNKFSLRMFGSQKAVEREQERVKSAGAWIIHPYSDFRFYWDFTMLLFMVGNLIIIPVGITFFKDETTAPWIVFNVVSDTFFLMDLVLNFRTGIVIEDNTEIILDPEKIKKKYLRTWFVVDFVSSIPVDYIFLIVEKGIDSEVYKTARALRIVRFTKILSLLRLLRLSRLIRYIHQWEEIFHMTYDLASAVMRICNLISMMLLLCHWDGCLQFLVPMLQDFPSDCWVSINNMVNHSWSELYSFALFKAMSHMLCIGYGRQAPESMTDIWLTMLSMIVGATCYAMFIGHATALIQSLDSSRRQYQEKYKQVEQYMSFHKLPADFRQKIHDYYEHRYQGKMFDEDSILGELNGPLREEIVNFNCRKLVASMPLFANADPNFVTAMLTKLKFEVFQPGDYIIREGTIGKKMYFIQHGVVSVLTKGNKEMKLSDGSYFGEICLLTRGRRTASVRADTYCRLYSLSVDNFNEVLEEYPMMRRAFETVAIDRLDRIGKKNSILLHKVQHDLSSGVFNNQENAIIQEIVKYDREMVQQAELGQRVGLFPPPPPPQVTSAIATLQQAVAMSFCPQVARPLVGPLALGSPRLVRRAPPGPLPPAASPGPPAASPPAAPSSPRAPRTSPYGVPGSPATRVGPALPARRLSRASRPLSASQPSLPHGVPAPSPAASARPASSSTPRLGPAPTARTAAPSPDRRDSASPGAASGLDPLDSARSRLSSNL
Described as above. The format is cell-based.

For orientation: IC50 means the point on the concentration scale where inhibition reaches its midpoint. Lower therefore signals greater potency. Consider `Oc1cc2c(cc1O)CN(C(=S)NCCc1ccc(Cl)cc1)CCC2` [CPZ, Capsazepine], for which the half-inhibitory concentration (IC50) on mHCN1 (Mouse HCN1) was determined as 8.2 ± 0.3 µM; against mHCN2 (Mouse HCN2), 9.6 ± 0.4 µM.
